Data reported in patent US10942183B2, “Methods of detecting progesterone receptor and of detecting an expression level” (REGENTS OF THE UNIVERSITY OF MINNESOTA, priority 2017, dated 2021).

Tests used:
[1] = system: SLC37A2 expression in MCF-7 cells; test: SLC37A2 mRNA expression by RT-qPCR in MCF-7 cells; type: cell-based
Method: For reverse transcription quantitative polymerase chain reaction (RT-qPCR) assays, 5×10^5 cells/well were plated in six-well dishes, serum starved in modified IMEM for one day before treatment. RNA was extracted using TriPure reagent (Roche, Basel, Switzerland) and cDNA was created using the qScript cDNA SuperMix kit (Quanta Biosciences, Beverly, Mass.). Relative expression levels were determined by qPCR assays performed on a Roche Light-Cycler II using SYBR green master-mix (Roche, Basel, Switzerland). Target gene quantification levels were normalized to the expression of standard housekeeper genes: TBP, ACTB, 18S, and/or GAPDH.
PR cooperation with one or more RUNX factors may be a mechanism for promoter selection by uniquely modified receptors. The family of RUNX transcription factors (RUNX1, 2, and 3) has complex roles in development and tumor formation with both tumor suppressive and tumor-promoting activities. […] From the GSEA results, SLC37A2, a candidate PR target gene containing multiple RUNX2 binding motifs immediately upstream and within the gene, was identified (FIG. 7A). SLC37A2 is a glucose-6-phosphate transporter expressed in monocytes as well as breast and cervical tissues. […] PR/progestin-dependent regulation of SLC37A2 mRNA expression in multiple cell line models was thus measured. […]

T47D cells = test: Mammosphere formation in T47D cells; type: cell-based, human; details: T47D EV, WT, KR or S294A PR-B; estrogen 1 nM, progesterone 10 nM; 14 days
Method: Primary Mammospheres: Adherent cells were washed with PBS and dissociated enzymatically in 0.25% trypsin-EDTA (Invitrogen Corporation, Carlsbad, Calif.). Cells were sieved through a 40-μm sieve (BD FALCON, BD Biosciences, Bedford, Mass.) and analyzed microscopically for single-cellularity. Single cells were plated in ultra-low attachment plates (Corning, Inc., Corning, N.Y.) and cultured in a humid incubator. Cells were grown in a serum-free mammary epithelial basal medium (MEBM; Lonza Group, Basel, Switzerland) containing 1% B27 Supplement (Invitrogen Corporation, Carlsbad, Calif.), 1% penicillin-streptomycin (Invitrogen Corporation, Carlsbad, Calif.), 5 μg/ml insulin (Invitrogen Corporation, Carlsbad, Calif.), 20 ng/ml EGF (Sigma-Aldrich, St. Louis, Mo.), 1 ng/ml hydrocortisone (Sigma-Aldrich, St. Louis, Mo.), and 100 μM β-mercaptoethanol. […] Mammosphere Forming Efficiency (MFE) % was calculated by the number of mammospheres per well/number of cells seeded per well.
Secondary Mammospheres: Primary mammospheres were collected by centrifugation (5 min, 1000 rpm), and dissociated enzymatically in 0.25% typsin-EDTA. Cells were sieved through a 40-μm tip strainer (Bel-Art SP Scienceware, South Wayne, N.J.) and analyzed microscopically for single-cellularity. […] Mammosphere Forming Efficiency (MFE) % was calculated by the number of mammospheres per well/number of cells seeded per well. […]

Question: Which “effect on progestin-upregulated SLC37A2 expression” value ([1]; MCF-7 overexpressing K388R PR, progestin plus mifepristone) does the source give for `CC#C[C@]1(O)CC[C@H]2[C@@H]3CCC4=CC(=O)CCC4=C3[C@@H](c3ccc(N(C)C)cc3)C[C@@]21C` [mifepristone] here?
Answer: blocked

Question: And the “agonist activity on SLC37A2 expression, antiprogestin alone” value ([1]; cells expressing KR PRs, RU486 treatment alone)?
Answer: weak partial agonist activity

Question: With `CC(=O)[C@H]1CC[C@H]2[C@@H]3CCC4=CC(=O)CC[C@]4(C)[C@H]3CC[C@]12C` [progesterone] as the compound, how does the “total numbers of primary and secondary mammospheres on addition of hormone to culture media” value (T47D cells) read?
Answer: had no significant effect on total numbers in any condition
